Results: patent US11680062B2, “3,4-methylenedioxyphenylimidazolylethanonexime ether derivative, preparation method and use thereof, and drug for the treatment of Alzheimer's disease” (NORTHWEST A&F UNIVERSITY, priority 2021, dated 2023)
Read-outs that look alike come from different tables or passages of the source.

How the values were obtained:
5×FAD transgenic mice [1] = assay: Barnes maze test (learning and memory ability); assay type: in vivo; settings: 5×FAD mice, 4 weeks
Procedure: (§1) The AD model mice used are 5×FAD transgenic mice, purchased from the Jackson Laboratory (JAX), USA. The transgenic mice have Swedish (K670N/M671L), Florida (I716V) and London (V717I) mutations in amyloid precursor protein (APP), and M146L and L286V mutations in PSEN1.
(§2) All mice were fed and watered ad libitum at 22±2° C. with a humidity of 50±10% and a 12 h light/dark cycle until 6 months old, then the experiment was started. All operations were in accordance with the guidelines of the National Health Administration and the guidelines for the use of laboratory animals. […]
The Barnes maze test is widely used to assess spatial learning and memory abilities. […] When the cylinder was removed, light was given to allow the mice to explore the platform and find the escape box within 180 s, the time when the mice entered the escape box was recorded by a camera-based EthoVision system (Noldus) and recorded as the escape latency. […] The successful escape latency of mice was recorded and analyzed.

5×FAD transgenic mice [2] = assay: Marble burying test (anxiety behavior); assay type: in vivo; settings: 5×FAD mice, high dose 30 mg/kg/day intraperitoneal, 4 weeks
Procedure: as §1, §2
Each mouse was placed in a cage (28×18×12 cm) containing 20 clean marbles (1.5 cm in diameter), evenly distributed on the surface of clean wood chips (4 cm in depth). After 30 min, each mouse was removed from the cage and the number of marbles buried at least two-thirds was counted.

[3] = system: NO production in lipopolysaccharide-induced BV-2 microglia; assay: Inhibition of NO production in lipopolysaccharide-induced BV-2 microglia; assay type: cell-based; settings: Mus musculus
BV-2 microglia [4] = settings: mouse
5×FAD transgenic mice [5] = assay: Y maze test (working memory ability); assay type: in vivo; settings: 5×FAD mice, 4 weeks
Procedure: as §1, §2
The Y maze test is a commonly used test method to assess working memory ability. […] The mice were placed in the center of the Y maze to explore the 3 arms freely for 5 min, all movements were recorded by a camera, and the spontaneous alternation ratio was calculated according to the situation of entering onto each arm.

5×FAD transgenic mice [6] = assay: Elevated plus maze test (anxiety behavior); assay type: in vivo; settings: 5×FAD mice, 4 weeks
Procedure: as §1, §2
The elevated plus maze is a recognized behavior test used for anxiety behavior assessment. […] The times of entries onto the open arm and the total times were recorded, and the anxiety behavior of the animal was evaluated by the proportion of entries onto the open arm.

BV-2 microglia [7] = assay: Cell viability corresponding to the NO production test
[8] = read-out: EC50 (inhibitory effect on the NO production)
[9] = high dose 30 mg/kg/day intraperitoneal
[10] = low dose 15 mg/kg/day intraperitoneal
[11] = read-out: EC50 (inhibition of NO production)

C#CCO/N=C(\Cn1ccnc1)c1ccc2c(c1)OCO2 [I-1]
successful escape latency vs 5×FAD-Vehicle group (5×FAD transgenic mice [1]; high dose 30 mg/kg/day intraperitoneal, day 3 and day 4): significantly reduced
successful escape latency vs 5×FAD-Vehicle group (5×FAD transgenic mice [1]; low dose 15 mg/kg/day intraperitoneal, day 4): significantly reduced
number of marbles buried (5×FAD transgenic mice [2]): significantly reduced
EC50 [3, 8]: 2.07 ± 0.56 µM
cell viability (BV-2 microglia [4]): 92.5%
spontaneous alternation ratio (5×FAD transgenic mice [5]; [9]): significantly increased
spontaneous alternation ratio (5×FAD transgenic mice [5]; [10]): significantly increased
proportion of entries onto the open arm (5×FAD transgenic mice [6]; [9]): significantly improved
proportion of entries onto the open arm (5×FAD transgenic mice [6]; [10]): significantly improved

C=CCO/N=C(\Cn1ccnc1)c1ccc2c(c1)OCO2 [I-3]
EC50 [3, 8]: 3.42 ± 0.64 µM
cell viability (BV-2 microglia [4]): 97.8%

CC(C)=CCO/N=C(\Cn1ccnc1)c1ccc2c(c1)OCO2 [I-5]
EC50 [3, 8]: 2.76 ± 0.34 µM
cell viability (BV-2 microglia [4]): 93.3%
melting point: 154.3 to 154.9 °C

c1ccc(CO/N=C(\Cn2ccnc2)c2ccc3c(c2)OCO3)cc1 [I-6]
EC50 [3, 8]: 4.43 ± 0.43 µM
cell viability (BV-2 microglia [4]): 97.8%
melting point: 186.4 to 187.9 °C

FC(F)(F)c1ccc(CO/N=C(\Cn2ccnc2)c2ccc3c(c2)OCO3)cc1 [I-7]
EC50 [3, 8]: 2.37 ± 0.17 µM
cell viability (BV-2 microglia [4]): 92.8%
melting point: 121.8 to 122.7 °C

FC(F)(F)c1ccccc1CO/N=C(\Cn1ccnc1)c1ccc2c(c1)OCO2 [I-8]
EC50 [3, 8]: 2.53 ± 0.47 µM
cell viability (BV-2 microglia [4]): 95.4%
melting point: 156.3 to 157.5 °C

N#Cc1ccc(CO/N=C(\Cn2ccnc2)c2ccc3c(c2)OCO3)cc1 [I-9]
EC50 [3, 8]: 4.24 ± 1.02 µM
cell viability (BV-2 microglia [4]): 91.6%

C(=C\c1ccccc1)/CO/N=C(\Cn1ccnc1)c1ccc2c(c1)OCO2 [I-10]
EC50 [3, 11]: > 20 µM
EC50 [3, 8]: > 20 µM
cell viability (BV-2 microglia [4]): 96.3%

Clc1ccc(CO/N=C(\Cn2ccnc2)c2ccc(Cl)cc2Cl)c(Cl)c1 [oxiconazole]
cell viability (BV-2 microglia [7]): 96.2%

O=c1c(O)c(-c2ccc(O)c(O)c2)oc2cc(O)cc(O)c12 [quercetin, reference compound]
cell viability (BV-2 microglia [7]): 94.3%
EC50 [3, 11]: 9.56 µM
EC50 [3, 8]: 9.56 ± 1.62 µM
